According to paper PMC12504763, “Antiproliferation, 3D-multicellular spheroid and VEGFR-2 inhibitory properties of spiroindolin-2-ones with phosphonate function” (Scientific Reports, 2025):
Where two headings read alike, the source gives them in different places.

Columns and labels:
[1] = system: HCT116 (colon) cancer cell line; assay: 2D-monolayer antiproliferation (MTT) against HCT116; format: cell-based, human; conditions: for IC50: Homo sapiens, HCT-116; for SI (selectivity index) HCT116: IC50 of RPE1 normal cell/IC50 of HCT116
[2] = system: TNF-α; assay: TNF-α inhibitory properties (ELISA), HCT116 cell lysate; format: cell-based, human; conditions: at 10 μM; for TNF-α pg/mL (± SEM) HCT116: control 95.74 ± 0.5
[3] = system: CAM blood vessel network; assay: Chick chorioallantoic membrane (CAM) anti-angiogenic assay; format: in vivo, chicken; conditions: 20 μL of 660 μM, 3 days; for Diameter of blood vessel (μm ± SEM): CAM test, control 459.7 ± 13.8
Method: CAM assay is an established xenograft technique for investigating the angiogenic effect due to the high resemblance of the human vascularized epithelium basement membrane with that of the chorioallantoic layer containing mainly type IV collagen[84]–[86].
Fig. 10 Images of light microscopy for anti-angiogenic evaluation of the tested compounds using CAM assay. […] The glass slide was placed on the surface of the CAM blood vessel network and left in an incubator at 37 °C for 3 days. The CAM blood vessel network was carefully cut and imaged under a light microscope (40 × magnification).
Fertilized white chicken eggs were incubated in a 37 °C incubator with constant humidity. On day 8, a small squared window was opened allowing the detachment of the growing CAM and shell. The opening was covered with an elastic bandage. […] The CAM was then sealed with a bandage and placed back in the incubator. CAMs were examined daily until day 12 (3 days), the vascularized membranes were then cut around the glass slide and fixed in 5% formalin. Images were taken with an Evos microscope at 40x and 100x magnification^9. Main blood vessel in the microscopic images of controls and samples were quantified by imageJ and analyzed for significant differences (n = 4).

[4] = system: A549 (lung) cancer cell line; assay: 2D-monolayer antiproliferation (MTT) against A549; format: cell-based, human; conditions: for IC50: Homo sapiens, MTT, 72 h incubation, A549 lung, read-out: IC50, μM ± SEM A549; for SI (selectivity index) A549: IC50 of RPE1 normal cell/IC50 of A549
[5] = molecular target: T1, COX-1 (Ovis aries, UniProt P05979); assay: biochemical; conditions: 3 replicates, read-out: % Inhibition of COX-1 ± SEM
T1 construct: purchased BioVision incorporated USA K548–100
T1 sequence (P05979 25-600): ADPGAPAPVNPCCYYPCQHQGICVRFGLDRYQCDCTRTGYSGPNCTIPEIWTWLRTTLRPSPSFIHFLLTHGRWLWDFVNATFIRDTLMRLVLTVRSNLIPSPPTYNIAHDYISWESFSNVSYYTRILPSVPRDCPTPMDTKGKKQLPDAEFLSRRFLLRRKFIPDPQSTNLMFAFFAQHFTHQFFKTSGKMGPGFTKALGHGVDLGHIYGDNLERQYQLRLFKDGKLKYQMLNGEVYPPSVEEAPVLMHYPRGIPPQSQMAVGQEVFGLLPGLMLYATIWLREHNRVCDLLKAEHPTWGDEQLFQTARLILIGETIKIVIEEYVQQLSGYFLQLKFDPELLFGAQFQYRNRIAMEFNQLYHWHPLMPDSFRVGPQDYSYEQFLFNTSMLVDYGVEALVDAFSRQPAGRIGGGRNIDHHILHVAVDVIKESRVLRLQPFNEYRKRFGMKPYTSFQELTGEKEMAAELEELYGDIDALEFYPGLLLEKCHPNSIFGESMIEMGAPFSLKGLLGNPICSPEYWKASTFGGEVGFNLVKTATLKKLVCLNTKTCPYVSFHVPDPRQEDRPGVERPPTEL

[6] = system: TNF-α; assay: TNF-α inhibitory properties (ELISA), PaCa2 cell lysate; format: cell-based, human; conditions: for TNF-α pg/mL (± SEM) PaCa2 / TNF-α % inhibition PaCa2: at 10 μM; for TNF-α pg/mL (± SEM) PaCa2: control 111.8 ± 2.0
[7] = system: RPE1 (normal human immortalized retinal pigment epithelial cell line); assay: cells; format: cell-based; conditions: for IC50: Homo sapiens, RPE-1, MTT, normal RPE1 cell, read-out: IC50, μM ± SEM RPE1
[8] = system: MCF7 (breast) cancer cell line; assay: 2D-monolayer antiproliferation (MTT) against MCF7; format: cell-based, human; conditions: for IC50: Homo sapiens, MTT, 72 h incubation, MCF7 breast, read-out: IC50, μM ± SEM MCF7; for SI (selectivity index) MCF7: IC50 of RPE1 normal cell/IC50 of MCF7
[9] = molecular target: T2, VEGFR-2 (Homo sapiens, UniProt P35968); assay: cell-based; format: cell-based; conditions: for inhibition at 10 µM: MCF7; for VEGFR-2 pg/mL ± SEM MCF7: at 10 μM, control 258.70 ± 2.3
T2 construct: endogenous in cells; host or cells: HCT116, PaCa2, MCF7 (human cancer cell lines, ATCC origin)
T2 sequence (P35968 20-1356): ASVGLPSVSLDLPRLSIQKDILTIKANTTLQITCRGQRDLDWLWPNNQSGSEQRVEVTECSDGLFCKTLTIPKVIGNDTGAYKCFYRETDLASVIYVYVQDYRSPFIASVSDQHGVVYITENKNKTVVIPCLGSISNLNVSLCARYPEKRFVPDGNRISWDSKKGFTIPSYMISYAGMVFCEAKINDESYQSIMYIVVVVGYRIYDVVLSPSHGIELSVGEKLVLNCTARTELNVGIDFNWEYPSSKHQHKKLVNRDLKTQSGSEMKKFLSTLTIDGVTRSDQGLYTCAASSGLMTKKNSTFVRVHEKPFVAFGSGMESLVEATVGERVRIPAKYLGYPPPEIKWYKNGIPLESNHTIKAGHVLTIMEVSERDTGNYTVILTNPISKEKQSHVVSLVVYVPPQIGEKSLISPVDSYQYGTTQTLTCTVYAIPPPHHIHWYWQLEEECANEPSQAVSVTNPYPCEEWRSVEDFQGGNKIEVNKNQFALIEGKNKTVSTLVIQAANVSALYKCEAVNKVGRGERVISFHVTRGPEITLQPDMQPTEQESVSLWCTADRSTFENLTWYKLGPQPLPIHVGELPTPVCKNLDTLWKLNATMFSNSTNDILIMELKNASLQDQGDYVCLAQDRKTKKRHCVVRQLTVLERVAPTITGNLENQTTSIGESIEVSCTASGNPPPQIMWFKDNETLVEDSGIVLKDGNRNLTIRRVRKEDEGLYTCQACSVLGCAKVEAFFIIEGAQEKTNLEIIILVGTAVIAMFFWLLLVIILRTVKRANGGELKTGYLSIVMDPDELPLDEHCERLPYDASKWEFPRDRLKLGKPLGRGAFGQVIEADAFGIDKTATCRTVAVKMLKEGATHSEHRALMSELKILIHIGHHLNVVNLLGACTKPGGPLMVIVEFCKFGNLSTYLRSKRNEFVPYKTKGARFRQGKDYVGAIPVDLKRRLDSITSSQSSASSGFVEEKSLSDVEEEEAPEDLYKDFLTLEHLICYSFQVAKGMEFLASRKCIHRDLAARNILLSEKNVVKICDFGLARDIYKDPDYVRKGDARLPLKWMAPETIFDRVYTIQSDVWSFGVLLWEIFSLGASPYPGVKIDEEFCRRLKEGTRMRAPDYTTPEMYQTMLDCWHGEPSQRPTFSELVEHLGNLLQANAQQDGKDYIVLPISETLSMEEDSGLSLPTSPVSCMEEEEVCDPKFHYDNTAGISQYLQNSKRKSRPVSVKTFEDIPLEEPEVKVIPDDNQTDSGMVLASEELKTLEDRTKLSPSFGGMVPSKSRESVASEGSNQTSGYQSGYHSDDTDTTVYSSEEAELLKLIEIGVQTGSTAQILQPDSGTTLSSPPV

[10] = system: TNF-α; assay: TNF-α inhibitory properties (ELISA), MCF7 cell lysate; format: cell-based, human; conditions: at 10 μM; for TNF-α pg/mL (± SEM) MCF7: control 83.26 ± 1.1
[11] = system: PaCa2 (pancreatic) cancer cell line; assay: 2D-monolayer antiproliferation (MTT) against PaCa2; format: cell-based, human; conditions: for 1/(observed property): 1/observed IC50 (μM), PaCa2; for IC50: Homo sapiens, PaCa-2, MTT, 72 h incubation, PaCa2 pancreatic, read-out: IC50, μM ± SEM PaCa2; for SI (selectivity index) PaCa2: IC50 of RPE1 normal cell/IC50 of PaCa2
[12] = molecular target: T3, COX-2 (Homo sapiens, UniProt P35354); assay: biochemical; conditions: for inhibition at 10 µM: 3 replicates, read-out: % Inhibition of COX-2 ± SEM; for SI (selectivity index, COX-2/COX-1): at 10 μM
T3 construct: purchased BioVision incorporated USA K548–100
T3 sequence (P35354 18-604): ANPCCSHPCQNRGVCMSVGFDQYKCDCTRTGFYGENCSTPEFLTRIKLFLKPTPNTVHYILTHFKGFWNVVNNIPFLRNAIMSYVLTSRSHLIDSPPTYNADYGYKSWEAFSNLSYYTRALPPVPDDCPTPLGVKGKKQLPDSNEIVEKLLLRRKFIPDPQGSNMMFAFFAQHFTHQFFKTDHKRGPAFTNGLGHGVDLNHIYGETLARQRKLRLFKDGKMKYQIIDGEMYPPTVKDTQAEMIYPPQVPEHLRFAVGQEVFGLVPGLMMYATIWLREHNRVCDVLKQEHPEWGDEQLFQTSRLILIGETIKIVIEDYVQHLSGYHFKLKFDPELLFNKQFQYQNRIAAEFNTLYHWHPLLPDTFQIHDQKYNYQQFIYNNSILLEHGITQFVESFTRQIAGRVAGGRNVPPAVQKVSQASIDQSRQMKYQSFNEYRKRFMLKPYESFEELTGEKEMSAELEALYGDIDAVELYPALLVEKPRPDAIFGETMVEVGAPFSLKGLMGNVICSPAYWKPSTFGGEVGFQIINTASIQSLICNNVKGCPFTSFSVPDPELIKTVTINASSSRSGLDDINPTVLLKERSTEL

[13] = molecular target: T2, VEGFR-2; assay: cell-based; format: cell-based; conditions: for inhibition at 10 µM: PaCa-2, PaCa2; for VEGFR-2 pg/mL ± SEM PaCa2: at 10 μM, control 326.80 ± 1.9
[14] = molecular target: T2, VEGFR-2; assay: cell-based; format: cell-based; conditions: for inhibition at 10 µM: HCT-116, HCT116; for VEGFR-2 pg/mL ± SEM HCT116: at 10 μM, control 317.80 ± 3.5
[15] = MTT, 72 h incubation, HCT116 colon, read-out: IC50, μM ± SEM HCT116
[16] = log of observed IC50 (μM), HCT116, read-out: Log(observed property) (converted)

| SMILES | IC50 [1, 15] [µM] | IC50 [1, 16] [µM] | SI (selectivity index) HCT116 [1] | TNF-α pg/mL (± SEM) HCT116 [2] [pg/mL] | Diameter of blood vessel (μm ± SEM) [3] [μm] | IC50 [4] [µM] | inhibition at 10 µM [5] [%] | TNF-α pg/mL (± SEM) PaCa2 [6] [pg/mL] | IC50 [7] [µM] | IC50 [8] [µM] | SI (selectivity index) MCF7 [8] | inhibition at 10 µM [9] [%] | VEGFR-2 pg/mL ± SEM MCF7 [9] [pg/mL] | TNF-α % inhibition MCF7 [10] [%] | TNF-α pg/mL (± SEM) MCF7 [10] [pg/mL] | 1/(observed property) [11] | IC50 [11] [µM] | SI (selectivity index) PaCa2 [11] | inhibition at 10 µM [12] [%] | inhibition at 10 µM [13] [%] | also measured |
| --- | --- | --- | --- | --- | --- | --- | --- | --- | --- | --- | --- | --- | --- | --- | --- | --- | --- | --- | --- | --- | --- |
| CCOP(=O)(OCC)N1C/C(=C\c2ccccc2)C(=O)C2(C1)C(c1ccccc1)CN(C)C21C(=O)Nc2ccccc21 (stereo not drawn) [Compound 17a, Diethyl (E)-(5′′-benzylidene-1′-methyl-2,4′′-dioxo-4′-phenyldispiro[indoline-3,2′-pyrrolidine-3′,3′′-piperidin]-1′′-yl)phosphonate] | 7.97 ± 0.338 | 7.97 | 2.1 | 24.86 ± 0.8 | 80.7 ± 3.7 | 14.5 ± 0.259 | 49.8 ± 1.8 | 24.8 ± 1.5 | 16.8 ± 0.516 | 5.86 ± 0.259 | 2.9 | 80.1 | 51.50 ± 0.8 | 78.1 | 18.25 ± 1.1 | 0.0774 | 12.9 ± 0.559 | 1.3 | 64.9 ± 2.8 | 94.1 | TNF-α % inhibition HCT116 [2]: 74.0%; SI (selectivity index) A549 [4]: 1.2; VEGFR-2 pg/mL ± SEM PaCa2 [13]: 19.26 ± 1.0 pg/mL; inhibition at 10 µM [14]: 88%; VEGFR-2 pg/mL ± SEM HCT116 [14]: 38.20 ± 1.6 pg/mL |
| CCOP(=O)(OCC)N1C/C(=C\c2ccc(Cl)cc2)C(=O)C2(C1)C(c1ccc(Cl)cc1)CN(C)C21C(=O)Nc2ccc(F)cc21 (stereo not drawn) [Compound 17i, Diethyl (E)-(5′′-(4-chlorobenzylidene)-4′-(4-chlorophenyl)-5-fluoro-1′-methyl-2,4′′-dioxodispiro[indoline-3,2′-pyrrolidine-3′,3′′-piperidin]-1′′-yl)phosphonate] | 4.14 ± 0.042 | 4.14 | > 12.1 | 28.56 ± 0.9 | 219.3 ± 5.6 | > 50 | 46.2 ± 2.4 | 22.8 ± 1.6 | > 50 | 4.81 ± 0.148 | > 10.4 | 80.9 | 49.50 ± 0.3 | 62.4 | 31.27 ± 1.3 | 0.07435 | 13.5 ± 0.898 | > 3.7 | 49.7 ± 1.9 | 86.9 | % Inhibition of the blood vessels in CAM test [3]: 52.3%; TNF-α inhibition fold of the standard ibuprofen ([6]; 10 μM): 1.9 fold; TNF-α inhibition fold of the standard indomethacin ([6]; 10 μM): 2.4 fold; TNF-α % inhibition PaCa2 [6]: 79.6%; selectivity index (SI) ([7]; IC50 against RPE1 compared to the tested cancer cell line(s), in words): high selectivity index; SI (selectivity index, COX-2/COX-1) [12]: 1.09; VEGFR-2 pg/mL ± SEM PaCa2 [13]: 42.76 ± 0.7 pg/mL; inhibition at 10 µM [14]: 74.4%; VEGFR-2 pg/mL ± SEM HCT116 [14]: 81.40 ± 1.9 pg/mL |
| CCOP(=O)(OCC)N1C/C(=C\c2ccc(C)cc2)C(=O)C2(C1)C(c1ccc(C)cc1)CN(C)C21C(=O)Nc2ccccc21 (stereo not drawn) [Compound 17m, Diethyl (E)-[1′-methyl-5′′-(4-methylbenzylidene)-2,4′′-dioxo-4′-(p-tolyl)dispiro[indoline-3,2′-pyrrolidine-3′,3′′-piperidin]-1′′-yl]phosphonate] | 3.44 ± 0.083 | 3.44 | 2.8 | 21.65 ± 0.9 | 85.7 ± 2.6 | 8.18 ± 0.435 | 58.3 ± 3 | 32.83 ± 1.3 | 9.57 ± 0.537 | 4.21 ± 0.085 | 2.3 | 83.5 | 42.80 ± 0.4 | 68.5 | 26.24 ± 2.2 | 0.1784 | 5.61 ± 0.063 | 1.7 | 60.9 ± 1.1 | 92.2 | TNF-α % inhibition HCT116 [2]: 77.4%; SI (selectivity index) A549 [4]: 1.2; TNF-α % inhibition PaCa2 [6]: 70.6%; SI (selectivity index, COX-2/COX-1) [12]: 0.93; VEGFR-2 pg/mL ± SEM PaCa2 [13]: 25.36 ± 1.0 pg/mL; inhibition at 10 µM [14]: 86%; VEGFR-2 pg/mL ± SEM HCT116 [14]: 44.50 ± 0.5 pg/mL |
